Experimental data reported in patent US20110257135A1, “TOPICAL PESTICIDE FORMULATION” (priority 2008, published 2011).

Key:
mice = assay: Initial topical test of 4% w/v formulation on mice; assay type: in vivo; conditions: 4% w/v cholecalciferol in absolute alcohol, 0.5 ml per animal
From the text: (§1) A formulation of the present invention was initially prepared and tested on mice and laboratory rats to determine the viability of the invention. The formulation contained cholecalciferol in an amount of 4% w/v and absolute alcohol. […] These studies are described in the following examples.

laboratory rats = assay: Initial topical test of 4% w/v formulation on laboratory rats; assay type: in vivo; conditions: 4% w/v cholecalciferol in absolute alcohol, 0.5 ml per animal
From the text: as §1

Bush Rat (Rattus rattus) = assay: Dermal application of cholecalciferol, Example 1 study (Table 1); assay type: in vivo; conditions: 1.0 ml of 20% cholecalciferol in absolute alcohol, topical; animal weight unknown
Procedure: (§2) Two formulations of the invention were prepared both containing cholecalciferol in solution with absolute alcohol. One of the formulations contained cholecalciferol in an amount of 20% w/v. The other formulation contained cholecalciferol in an amount of 40% w/v. The formulation was topically applied to several animal pest species in varying amounts and the animals were studied.

Ferret = assay: as above; assay type: in vivo; conditions: 2.0 ml of 40% cholecalciferol in absolute alcohol, topical; animal 902 g
Procedure: as §2

Hedgehog = assay: as above; assay type: in vivo; conditions: 1.5 ml of 20% cholecalciferol in absolute alcohol, topical; animal 515 g
Procedure: as §2

[1] = system: Lab Rat (Rattus norvegicus); assay: as above; assay type: in vivo; conditions: 0.5 ml of 20% cholecalciferol in absolute alcohol, topical; animal weight unknown
Procedure: as §2

Rabbit = assay: as above; assay type: in vivo; conditions: 2.0 ml of 20% cholecalciferol in absolute alcohol, topical; animal 2.6 kg
Procedure: as §2

Weasel = assay: as above; assay type: in vivo; conditions: 1.5 ml of 40% cholecalciferol in absolute alcohol, topical
Procedure: as §2

stoats = assay: Dermal application of test solution to wild-caught stoats (Example 2 study); assay type: in vivo
Procedure: A test solution of approximately 100 ml was formulated, containing Vitamin D3 (cholecalciferol) resin in the solvent absolute alcohol. The concentration of cholecalciferol in the solution was about 40% w/v. The formulation was designed to kill stoats.
Wild-caught adult stoats (three male and three female) were housed in outdoor cages (60×150×90 cm). Each stoat was provided with a nest box (40×33×15 cm) containing shredded paper as nesting material. Stoats were fed a rotation of, dead day-old chicks, chicken pet mince and mutton/beef pet mince in the afternoon and had free access to water.
They were acclimatised to captivity for at least 5 months prior to being used in the trial. The stoats were lightly anaesthetised with isoflurane, weighed and then had 1.5 ml of the test solution applied to their skin and fur, using a syringe to deliver a line of solution along the spine from the nape to the base of the tail. This was a ‘high exposure’ simulation of the manner in which the delivery system would apply a toxic solution to the fur and skin of stoats.
After application of the solution, the stoats were placed into large nest boxes which were lined with paper but without bedding material, to facilitate observation. Dark Perspex lids were kept on the nest boxes to minimise disturbance of stoats by human observers. The stoats were monitored constantly through recovery from anaesthesia and then for the next three hours to record their responses to the solution on their coats and document any behaviour associated with its presence e.g. grooming, rubbing or rolling. After the three hour observation period in the boxes, stoats were returned to their outdoor cages with nesting material, food and water freely available. […] After this, observations of each stoat were recorded once daily, noting any signs of illness that are associated with cholecalciferol poisoning, e.g. stop feeding, significant body weight loss. Where any signs of illness occurred, the monitoring was to be increased to twice daily (morning and afternoon).
Feed intakes of the stoats were visually estimated for at least three days prior to dosing, i.e. ration all eaten, half eaten, quarter eaten, none eaten. Food intake was similarly noted daily after dosing through until death or 21 days (whichever occurred first). Stoats were weighed at least once a week after dosing, through to death or 21 days (which ever occurred first). Any stoats that died during the 21 day observation were to be retained for necropsy. Typical signs of poisoning (inappetance combined with significant body weight loss) were used as an alternative endpoint for the trial, with a weight loss greater than 25% of bodyweight at dosing triggering euthanasia. Stoats that survived the 21 day observation were to be euthanized.

[2] = Cholecalciferol concentration of test solution by normal phase liquid chromatography (stability of formulation); assay type: physicochemical
Procedure: To confirm the cholecalciferol concentration present and enable accurate exposure calculations when the test solution was applied to the stoats, a sub-sample (approximately 20 ml) of this solution was taken for analysis. Cholecalciferol concentration was determined by taking a sample of liquid which was warmed, mixed and 0.2 g weighed into a volumetric flask 30 ml of toluene was added, and this solution was sonicated without heating and made up to volume. The solution was diluted with hexane/isopropyl alcohol, filtered and analysed against an internal standard by normal phase liquid chromatography.
The test solution was analysed as containing 30% cholecalciferol with an uncertainty of 5%. This was lower than the nominal 40% cholecalciferol in the solution indicated by the analysis carried out the day after the solution was prepared. The assay was carried out on a sub-sample of solution taken 7 days after preparation, and also following the extraction of 6×1.5 ml aliquots of the solution for application to stoats.
This may mostly have occurred on exposure to air when aliquots of solution were drawn from the container for application to the stoats. Cholecalciferol preparations are sensitive to light and exposure to air, with oxidation and inactivation occurring over a few days in the presence of moist air. However, it is noted that even at a 30% concentration, the solution contained sufficient cholecalciferol to deliver an effective lethal dose to all six stoats in 1.5 ml.

weasels = assay: Proof of concept trial on wild weasels (Example 3 study); assay type: in vivo
From the text: Three wild weasels were caught for a proof of concept trial to determine if the formulation of the invention would be effective as a humane method of killing these pests. The weasels were caged separately in individual waterproof, roofed, wired enclosures of approximately 1 m^2. The animals were fed on raw meat, by simply placing the meat on a wire hooked into the side of the cages. In eating the animals simply pulled on and chewed the meat. Drinking water was available. Within each enclosure was a small box of 25×25 cm with a mesh roof. A vertical sliding door could be removed to provide an entrance to the enclosure and the enclosure was half filled with nesting material of hay. It was observed that the animals covered themselves in the hay and made pathways through it.
Each of the animals was then treated with a formulation comprising 32% cholecalciferol (resin form) in solution with the glycol ether, DGMEE, and observations were made.
The first animal, a male weasel weighing 157 grams, was treated by application of 1 ml of the formulation using a syringe to the back of the animal. This weasel died within 44 hours of application of the formulation.
The second animal, a female weasel weighing 94 grams, was treated using an eradication apparatus as described above. The electronically activated apparatus was placed into the cage of the animal. The apparatus comprised of a tunnel, including a sensing means comprising two pairs of sensors, and a tracking card to record the footprints of the weasel to establish that the animal had passed through the tunnel. An automatic dispensing means was operatively connected to the tunnel, so that when the weasel passed through the tunnel and the two pairs of sensors were covered ,simultaneously, the dispensing , means was automatically activated to deliver the formulation to the animal. In this manner, approximately 0.9 ml of the cholecalciferol formulation was applied to the back of the weasel as it passed through the tunnel of the apparatus. It was observed that some of the formulation was present on the tracking card so the weasel had not received the total volume of the formulation. The weasel died approximately 50 hours after receiving the formulation.
The third animal, a male weasel weighing 54 grams was treated by squirting approximately 1 ml of the formulation onto the back of the animal using a hand held syringe. This weasel died within about 39 hours of application of the formulation.

Rattus rattus (bush rat) = assay: Topical administration to live captured bush rats (Example 4 study); assay type: in vivo
Procedure: Three animals of the species Rattus rattus (also known as the bush rat) were live captured. They were placed in separate enclosures with on demand food and water supplies, and nesting material of dry hay. After 14 days of acclimatization to these conditions, the animals were each treated with a formulation comprising a solution of 33% cholecalciferol (resin form) in the glycol ether, DGMEE. Each animal was given a dose of about 3 ml of the formulation by topical administration to the back of the animal using a calibrated syringe. Each of the animals died within six days of receiving the formulation. The first rat, a male weighing 122 grams, weighed 106 grams at death. The second rat, a female weighing 108 grams, weighed 98 grams at death. The third rat, a male weighing 97 grams, weighed 90 grams at death.

[3] = Stoat Female 407, 193 g at dosing, 2331 mg/kg dermal
[4] = Stoat Male 391, 235 g at dosing, 1914 mg/kg dermal
[5] = Stoat Male 415, 382 g at dosing, 1178 mg/kg dermal
[6] = Stoat Male 419, 359 g at dosing, 1253 mg/kg dermal

C=C1CC[C@H](O)C/C1=C/C=C1\CCC[C@]2(C)[C@@H]([C@H](C)CCCC(C)C)CC[C@@H]12 [cholecalciferol]
death of the animal (mice): death of the animal occurred within a reasonably short time frame
death of the animal (laboratory rats): death of the animal occurred within a reasonably short time frame
Observations: time to death (Bush Rat (Rattus rattus)): within 40 hours
Observations: time to death (Ferret): within 48 hours
Observations: time to death (Hedgehog): within 25 hours
Observations: time to death [1]: within 72 hours
Observations: time to death (Rabbit): within 2 days
Observations: time to death (Weasel; animal 116 g): within 43 hours
Observations: time to death (Weasel; animal 139 g): within 36 hours
% weight loss at death (stoats; Stoat Female 407, 2331 mg/kg dermal): 46%
Fate (days after dosing) (stoats; Stoat Female 407, 193 g at dosing, 1.5 ml test solution, estimated exposure 2331 mg/kg): died (12)
Weight at day 7 (stoats; [3]): 151 g
Weight at day 12 (stoats; [3]): 112 g
% weight loss at death (stoats; Stoat Female 413, 2486 mg/kg dermal): 44%
Fate (days after dosing) (stoats; Stoat Female 413, 181 g at dosing, 1.5 ml test solution, estimated exposure 2486 mg/kg): died (11)
Weight at day 7 (stoats; Stoat Female 413, 181 g at dosing, 2486 mg/kg dermal): 120 g
% weight loss at death (stoats; Stoat Female 414, 2205 mg/kg dermal): 13%
Fate (days after dosing) (stoats; Stoat Female 414, 204 g at dosing, 1.5 ml test solution, estimated exposure 2205 mg/kg): died (4)
% weight loss at death (stoats; Stoat Male 391, 1914 mg/kg dermal): 30%
Fate (days after dosing) (stoats; Stoat Male 391, 235 g at dosing, 1.5 ml test solution, estimated exposure 1914 mg/kg): euthanized (12)
Weight at day 7 (stoats; [4]): 188 g
Weight at day 12 (stoats; [4]): 166 g
% weight loss at death (stoats; Stoat Male 415, 1178 mg/kg dermal): 36%
Weight at day 7 (stoats; [5]): 296 g
Weight at day 12 (stoats; [5]): 254 g
Fate (days after dosing) (stoats; Stoat Male 415, 382 g at dosing, 1.5 ml test solution (nominal 40%, assayed 30%, absolute alcohol), estimated exposure 1178 mg/kg): euthanized (12)
% weight loss at death (stoats; Stoat Male 419, 1253 mg/kg dermal): 37%
Weight at day 7 (stoats; [6]): 277 g
Weight at day 12 (stoats; [6]): 253 g
Fate (days after dosing) (stoats; Stoat Male 419, 359 g at dosing, 1.5 ml test solution, estimated exposure 1253 mg/kg): euthanized (12)
inappetance (stop feed effect) (stoats; from the first night after dosing, generally eating less than half of rations each day): All six stoats showed inappetance
effective lethal dermal exposure (in excess of or equal to a dermal LD99 value) (stoats; lower end of exposure range in stoats, test solution in absolute alcohol): 1178 mg/kg
cages with vomitus present (stoats; morning after return to outdoor cages, 1.5 ml test solution): three of the 6
mortality (number of stoats) (stoats; six stoats, over 12 days after dosing, 1.5 ml test solution): three
necropsy findings (stoats; stoats that died): no gross evidence of calcification/mineralisation or lung damage
time of euthanasia after dosing (weight loss endpoint), male stoats (stoats; three male stoats, 1.5 ml test solution, 1178-1914 mg/kg): 12 days
cholecalciferol concentration of test solution (nominal) ([2]; analysis carried out the day after the solution was prepared, absolute alcohol): 40%
change of cholecalciferol concentration in test solution ([2]; during the 7 days from preparation to application): slight decline
cholecalciferol concentration of test solution ([2]; sub-sample taken 7 days after preparation, after extraction of aliquots, uncertainty of 5%, absolute alcohol): 30%
appetite after application (weasels; female weasel 94 grams, approximately 0.9 ml of 32% cholecalciferol in DGMEE): lost its appetite
time to death (weasels; female weasel 94 grams, approximately 0.9 ml of 32% cholecalciferol in DGMEE via eradication apparatus, not total volume received): approximately 50 hours
time to death (weasels; male weasel 54 grams, approximately 1 ml of 32% cholecalciferol in DGMEE by hand held syringe): ≤ 39 h
time to death (weasels; male weasel 157 grams, 1 ml of 32% cholecalciferol (resin) in DGMEE by syringe to the back): ≤ 44 h
food consumption after application (weasels; male weasel 157 grams, 1 ml of 32% cholecalciferol in DGMEE): ate only a small quantity of what it had previously been consuming
weight at death (Rattus rattus (bush rat); first rat, male weighing 122 grams, about 3 ml of 33% cholecalciferol in DGMEE): 106 grams
hair loss at application site (Rattus rattus (bush rat); over the first few days of treatment, about 3 ml of 33% cholecalciferol in DGMEE): hair loss was observed on all of the animals
weight at death (Rattus rattus (bush rat); second rat, female weighing 108 grams, about 3 ml of 33% cholecalciferol in DGMEE): 98 grams
weight at death (Rattus rattus (bush rat); third rat, male weighing 97 grams, about 3 ml of 33% cholecalciferol in DGMEE): 90 grams
time to death (Rattus rattus (bush rat); three bush rats, about 3 ml of 33% cholecalciferol (resin) in DGMEE, topical to the back): six
